# From paper PMC4840931 (Clinical cancer research : an official journal of the …, 2015)
# Marks after values point to notes of the source that are not given here.
# Columns and labels:
# [1] = test system: patients with advanced solid tumors; assay: Tumor response by RECIST version 1.0; type: in vivo, human
# [2] = Plasma pharmacokinetics; conditions: human, in vivo
# [3] = Urinary excretion of unchanged lenvatinib; type: in vivo, human; conditions: for fe (fraction of the dose excreted in urine): mean (SD)
# [4] = test system: human umbilical vein endothelial cell; conditions: cited from earlier work
# [5] = test system: human umbilical vein endothelial cell; conditions: cited from earlier work; remark: listed apart in the source
# [6] = test system: human lung (H146) mouse xenograft; conditions: cited from earlier work
# [7] = test system: breast cancer (MDA-MB-231) mouse xenograft; conditions: cited from earlier work
# [8] = cited from earlier work
compound,measurement,setting,value
COc1cc2nccc(Oc3ccc(NC(=O)NC4CC4)c(Cl)c3)c2cc1C(N)=O [lenvatinib],Durable SD ≥23 weeks,[1]; all 29 patients with melanoma,24.1%
same,PD,[1]; all 29 patients with melanoma,17.2%
same,PR,[1]; all 29 patients with melanoma,10.3%
same,PRs/uPRs as best response,[1]; all 29 patients with melanoma,17.2%
same,PR or uPR in patients with wild-type BRAF,"[1]; expanded melanoma cohort, 3 of 17 patients",17.6%
same,Responses (PR/uPR) by disease: lung,[1]; in vivo,1/1
same,Responses (PR/uPR) by disease: melanoma,[1]; in vivo,5/29
same,Responses (PR/uPR) by disease: ovarian,[1]; in vivo,1/5
same,Responses (PR/uPR) by disease: pancreatic,[1]; in vivo,1/2
same,Responses (PR/uPR) by disease: renal,[1]; in vivo,1/1
same,Responses (PR/uPR) by disease: thyroid,[1]; in vivo,3/6
same,PR/uPR as best response,"[1]; overall, n=77",15.6%
same,Total PR/uPR/SD≥23 weeks,"[1]; overall, n=77",40.3%
same,Median number of cycles after which confirmed PRs were determined,"[1]; overall, range, 4–46 cycles",18 cycles
same,Confirmed PR,"[1]; schedule 1, 18 patients",no patient
same,PD,"[1]; schedule 1, 18 patients",44.4%
same,uPR,"[1]; schedule 1, NSCLC",One
same,Confirmed PR,"[1]; schedule 2, 33 patients",21.2%
same,Durable SD,"[1]; schedule 2, 33 patients",9 patients
same,PD,"[1]; schedule 2, 33 patients",18.2%
same,"Accumulation, steady state vs single dose",[2],1.5-2.2 fold
same,Tmax,[2],1.5 to 3 h
same,Cmax,[2]; 3.2 mg,51.4 (30.5) ng/mL
same,AUC(0-t),"[2]; 3.2 mg, AUC0-6",0.18 µg·h/mL
same,AUC(0-t),"[2]; 3.2 mg, AUC0-24",0.407 µg·h/mL
same,AUC0-24,[2]; 5 mg,649.70 (256.151) ng·hr/mL
same,AUC(0-t),"[2]; 5 mg, AUC0-6",0.245 µg·h/mL
same,Cmax,"[2]; 5 mg, Cmax",0.0626 µg/mL
same,AUC0-6,[2]; 8 mg,678 (262) ng·hr/mL
same,AUC0-24,[2]; 8 mg,1819.57 (735.252) ng·hr/mL
same,CL/F,[2]; 8 mg,8.05 L/h
same,Cmax,[2]; 8 mg,168 (73.4) ng/mL
same,Tmax,[2]; 8 mg,2.5 h
same,Vd/F,[2]; 8 mg,86.8 L
same,AUC(0-t),"[2]; 8 mg, AUC0-6",0.613 µg·h/mL
same,AUC(0-t),"[2]; 8 mg, AUC0-24",1.3 µg·h/mL
same,Cmax,"[2]; 8 mg, Cmax",0.177 µg/mL
same,AUC0-6,[2]; 10 mg,815(320) ng·hr/mL
same,AUC0-24,[2]; 10 mg,1984.94 (971.427) ng·hr/mL
same,Cmax,[2]; 10 mg,209 (107) ng/mL
same,Tmax,[2]; 10 mg,2 h
same,Vd/F,[2]; 10 mg,75.4 L
same,tmax,[2]; 10 mg,3.00 (0.00−6.00) hr
same,AUC(0-t),"[2]; 10 mg, AUC0-6",0.608 µg·h/mL
same,AUC(0-t),"[2]; 10 mg, AUC0-24",1.37 µg·h/mL
same,Cmax,"[2]; 10 mg, Cmax",0.167 µg/mL
same,Tmax,[2]; 12 mg,1.5 h
same,AUC(0-t),"[2]; 12 mg, AUC0-6",0.913 µg·h/mL
same,AUC(0-t),"[2]; 12 mg, AUC0-24",1.81 µg·h/mL
same,Cmax,"[2]; 12 mg, Cmax",0.232 µg/mL
same,CL/F,[2]; 16 mg,6.09 L/h
same,Vd/F,[2]; 16 mg,68.5 L
same,AUC(0-t),"[2]; 16 mg, AUC0-6",1.51 µg·h/mL
same,Cmax,"[2]; 16 mg, Cmax",0.341 µg/mL
same,fe (fraction of the dose excreted in urine),"[3]; Melanoma Expansion Cohort, Cycle 1 Day 1, 10 mg, n=25",0.45 (0.282) %
same,fe (fraction of the dose excreted in urine),"[3]; Melanoma Expansion Cohort, Cycle 2 Day 1, 10 mg, n=16",0.95 (0.987) %
same,fe (fraction of the dose excreted in urine),"[3]; Schedule 2 continuous daily dosing, Cycle 1 Day 1, 3.2 mg, n=3",0.37 (0.102) %
same,fe (fraction of the dose excreted in urine),"[3]; Schedule 2 continuous daily dosing, Cycle 1 Day 1, 5 mg, n=7",1.47 (0.685) %
same,fe (fraction of the dose excreted in urine),"[3]; Schedule 2 continuous daily dosing, Cycle 1 Day 1, 8 mg, n=10",0.83^a (0.351) %
same,fe (fraction of the dose excreted in urine),"[3]; Schedule 2 continuous daily dosing, Cycle 1 Day 1, 12 mg, n=4",0.68 (0.283) %
same,fe (fraction of the dose excreted in urine),"[3]; Schedule 2 continuous daily dosing, Cycle 2 Day 1, 8 mg, n=6",1.26 (1.168) %
same,fe (fraction of the dose excreted in urine),"[3]; Schedule 2 continuous daily dosing, Cycle 2 Day 1, 16 mg, n=6",1.35 (0.593) %
same,Fraction of the dose excreted unchanged in the urine (fe),"[3]; during the 24 hours following the dose, regardless of dose",< 1.5%
same,VEGF-driven human umbilical vein endothelial cell proliferation,[4],inhibits
same,VEGF-driven human umbilical vein endothelial cell tube formation,[5],inhibits
same,Tumor growth,[6],significantly inhibits
same,Tumor growth,[7],significantly inhibits
same,Effect of co-administration of CYP3A4 inhibitors and inducers on exposure,[8],neither affected
